Experimental data as given in the NIST ThermoML archive (doi:10.1016/j.jct.2008.04.002).
Numbers after ± are expanded uncertainties.

Assay: activity coefficient (dimensionless); of the first substance listed, at infinite dilution; xn = mol fraction of the nth substance listed
Settings: Liquid, Chromatography, x1 = 0

Structure (SMILES) | activity coefficient (303.15 K) | activity coefficient (308.15 K) | activity coefficient (313.15 K) | activity coefficient (318.15 K)
C#CCCCCC [1-heptyne] + CC(CC(C)(C)C)CP(=O)([O-])CC(C)CC(C)(C)C.CCCCCCCCCCCCCC[P+](CCCCCC)(CCCCCC)CCCCCC | 0.33 ± 0.04 | 0.35 ± 0.04 | 0.39 ± 0.04 | 0.41 ± 0.04
CCCCCC [hexane] + CC(CC(C)(C)C)CP(=O)([O-])CC(C)CC(C)(C)C.CCCCCCCCCCCCCC[P+](CCCCCC)(CCCCCC)CCCCCC | 0.71 ± 0.06 | 0.73 ± 0.06 | 0.73 ± 0.06 | 0.75 ± 0.06
C1CCCC1 [cyclopentane] + CC(CC(C)(C)C)CP(=O)([O-])CC(C)CC(C)(C)C.CCCCCCCCCCCCCC[P+](CCCCCC)(CCCCCC)CCCCCC | 0.45 ± 0.04 | 0.46 ± 0.04 | 0.48 ± 0.05 | 0.5 ± 0.05
CCCCCCC [heptane] + CC(CC(C)(C)C)CP(=O)([O-])CC(C)CC(C)(C)C.CCCCCCCCCCCCCC[P+](CCCCCC)(CCCCCC)CCCCCC | 0.77 ± 0.07 | 0.79 ± 0.07 | 0.81 ± 0.07 | 0.83 ± 0.07
C1CCCCCC1 [cycloheptane] + CC(CC(C)(C)C)CP(=O)([O-])CC(C)CC(C)(C)C.CCCCCCCCCCCCCC[P+](CCCCCC)(CCCCCC)CCCCCC | 0.56 ± 0.05 | 0.56 ± 0.05 | 0.58 ± 0.05 | 0.6 ± 0.05
c1ccccc1 [benzene] + CC(CC(C)(C)C)CP(=O)([O-])CC(C)CC(C)(C)C.CCCCCCCCCCCCCC[P+](CCCCCC)(CCCCCC)CCCCCC | 0.44 ± 0.04 | 0.47 ± 0.04 | 0.48 ± 0.05 | 0.49 ± 0.05
C#CCCCCCC [1-octyne] + CC(CC(C)(C)C)CP(=O)([O-])CC(C)CC(C)(C)C.CCCCCCCCCCCCCC[P+](CCCCCC)(CCCCCC)CCCCCC | 0.28 ± 0.03 | 0.33 ± 0.04 | 0.36 ± 0.04 | 0.39 ± 0.04
CCCCC [pentane] + CC(CC(C)(C)C)CP(=O)([O-])CC(C)CC(C)(C)C.CCCCCCCCCCCCCC[P+](CCCCCC)(CCCCCC)CCCCCC | 0.66 ± 0.06 | 0.69 ± 0.06 | 0.7 ± 0.06 | 0.71 ± 0.06
C=CCCC [1-pentene] + CC(CC(C)(C)C)CP(=O)([O-])CC(C)CC(C)(C)C.CCCCCCCCCCCCCC[P+](CCCCCC)(CCCCCC)CCCCCC | 0.59 ± 0.05 | 0.61 ± 0.05 | 0.62 ± 0.05 | 0.64 ± 0.06
C#CCCCC [1-hexyne] + CC(CC(C)(C)C)CP(=O)([O-])CC(C)CC(C)(C)C.CCCCCCCCCCCCCC[P+](CCCCCC)(CCCCCC)CCCCCC | 0.38 ± 0.04 | 0.4 ± 0.04 | 0.43 ± 0.04 | 0.46 ± 0.04
CCCCCCCC [octane] + CC(CC(C)(C)C)CP(=O)([O-])CC(C)CC(C)(C)C.CCCCCCCCCCCCCC[P+](CCCCCC)(CCCCCC)CCCCCC | 0.79 ± 0.07 | 0.82 ± 0.07 | 0.85 ± 0.07 | 0.86 ± 0.07
C1CCCCC1 [cyclohexane] + CC(CC(C)(C)C)CP(=O)([O-])CC(C)CC(C)(C)C.CCCCCCCCCCCCCC[P+](CCCCCC)(CCCCCC)CCCCCC | 0.51 ± 0.05 | 0.52 ± 0.05 | 0.54 ± 0.05 | 0.56 ± 0.05
C=CCCCC [hex-1-ene] + CC(CC(C)(C)C)CP(=O)([O-])CC(C)CC(C)(C)C.CCCCCCCCCCCCCC[P+](CCCCCC)(CCCCCC)CCCCCC | 0.63 ± 0.06 | 0.65 ± 0.06 | 0.68 ± 0.06 | 0.7 ± 0.06
C=CCCCCCC [oct-1-ene] + CC(CC(C)(C)C)CP(=O)([O-])CC(C)CC(C)(C)C.CCCCCCCCCCCCCC[P+](CCCCCC)(CCCCCC)CCCCCC | 0.75 ± 0.06 | 0.76 ± 0.06 | 0.78 ± 0.07 | 0.81 ± 0.07
